Data taken from publication PMC8245855 (Acta Pharmaceutica Sinica. B, 2021).
Like-named read-outs stand apart in the source and are kept apart here. Each block holds one compound with its values, some of them ahead of it.

Columns and labels:
5-LOX [1] = details: cited from earlier work; for IC50: read-out: IC50, 5-LOX
12-LOX = target: T1, 12-LOX (Homo sapiens, UniProt P18054); details: 10 μmol/L; human neutrophils; cited from earlier work
T1 sequence (P18054 1-663): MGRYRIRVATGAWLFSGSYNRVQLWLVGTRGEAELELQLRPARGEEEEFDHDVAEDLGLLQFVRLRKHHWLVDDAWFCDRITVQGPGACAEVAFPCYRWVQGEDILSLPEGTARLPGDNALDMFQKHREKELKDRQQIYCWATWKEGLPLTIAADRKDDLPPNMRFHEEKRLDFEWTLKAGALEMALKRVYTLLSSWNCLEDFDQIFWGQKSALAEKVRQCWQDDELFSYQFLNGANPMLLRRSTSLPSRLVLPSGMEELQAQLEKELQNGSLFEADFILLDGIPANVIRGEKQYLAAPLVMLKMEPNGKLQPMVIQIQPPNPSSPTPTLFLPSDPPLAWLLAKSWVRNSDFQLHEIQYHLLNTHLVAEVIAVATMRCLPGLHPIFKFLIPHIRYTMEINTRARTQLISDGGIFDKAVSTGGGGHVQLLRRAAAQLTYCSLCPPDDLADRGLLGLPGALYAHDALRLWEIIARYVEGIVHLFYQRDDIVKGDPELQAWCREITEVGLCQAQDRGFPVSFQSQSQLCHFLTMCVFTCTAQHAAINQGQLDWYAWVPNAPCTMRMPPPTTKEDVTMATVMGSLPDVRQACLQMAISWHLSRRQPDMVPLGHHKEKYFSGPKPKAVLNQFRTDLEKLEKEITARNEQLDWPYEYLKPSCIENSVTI

15-LOX = details: 10 μmol/L; human neutrophils; cited from earlier work
5-LOX [2] = target: T2, 5-LOX (Homo sapiens, UniProt P09917); experiment: 5-LOX product formation in activated PMNL; format: cell-based; details: for IC50: read-out: IC50, 5-LOX product formation, activated PMNL, A23187 plus arachidonic acid
T2 sequence (P09917 1-674): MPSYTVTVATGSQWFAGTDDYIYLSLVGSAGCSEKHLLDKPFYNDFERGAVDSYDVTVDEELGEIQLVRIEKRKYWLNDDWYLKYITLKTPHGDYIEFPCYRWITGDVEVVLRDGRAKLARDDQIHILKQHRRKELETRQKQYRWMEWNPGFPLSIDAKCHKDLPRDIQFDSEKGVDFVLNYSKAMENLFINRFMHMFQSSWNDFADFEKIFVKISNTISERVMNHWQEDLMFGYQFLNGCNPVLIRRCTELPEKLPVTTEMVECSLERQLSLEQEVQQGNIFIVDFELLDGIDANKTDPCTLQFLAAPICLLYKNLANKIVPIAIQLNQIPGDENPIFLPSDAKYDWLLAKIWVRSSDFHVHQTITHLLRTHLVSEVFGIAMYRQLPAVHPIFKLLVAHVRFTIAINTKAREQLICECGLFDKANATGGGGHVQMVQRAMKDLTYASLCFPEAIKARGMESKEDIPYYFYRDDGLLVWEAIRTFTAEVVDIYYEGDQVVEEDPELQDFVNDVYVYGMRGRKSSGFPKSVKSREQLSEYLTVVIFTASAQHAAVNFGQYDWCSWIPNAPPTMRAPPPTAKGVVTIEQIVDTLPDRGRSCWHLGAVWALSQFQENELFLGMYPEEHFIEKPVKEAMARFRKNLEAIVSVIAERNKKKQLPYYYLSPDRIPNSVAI

5-LOX [3] = target: T2, 5-LOX; experiment: cell-free 5-LOX activity; format: biochemical; details: for IC50: read-out: IC50, human recombinant 5-LOX, arachidonic acid 20 μmol/L
COX-1 = details: read-out: IC50, COX-1; cited from earlier work
[4] = system: human neutrophils or macrophages; details: cited from earlier work

Compound: 3-O-acetyl-11-keto-β-boswellic acid [AKBA]
IC50 (5-LOX [1]): 3000 nM
formation of 12-LOX metabolites (12-LOX): 270%
formation of 15-LOX metabolites (15-LOX): 210%

IC50 (5-LOX [2]): 800 ± 140 nM
IC50 (5-LOX [3]): 300 ± 70 nM
Compound: COc1ccc(C(CCc2ccc(O)cc2OC)c2cc3c(c(C)c2O)OC(c2ccc(O)cc2)CC3)cc1 (centres unmarked) [Compound 3]

IC50 (5-LOX [2]): 460 ± 120 nM
IC50 (5-LOX [3]): 900 ± 260 nM
Compound: COc1cc(O)ccc1CCC(c1ccc(O)cc1)c1c(O)c(C)c2c(c1O)C(=O)CC(c1ccc(O)cc1)O2 (centres unmarked) [Compound 4]

inhibition at 3 µM (5-LOX [2]; PMNL, read-out: inhibition of biosynthesis of 5-LOX metabolites, PMNL): 64.1 ± 6.3%
suppression of 5-LOX product formation, cell-free (5-LOX [3]; 3 μmol/L): 70.7 ± 2.7%
Compound: CC(c1cc2ccccc2s1)N(O)C(N)=O (centres unmarked) [Zileuton, zileuton]

Compound: Cc1cc(C(C)(C)C)c(O)c(C)c1CC1=NCCN1 [oxymetazoline]
5-LOX product formation (5-LOX [1]; 1000 μmol/L): failed to inhibit
SPM formation ([4]; 400 μmol/L): 130%

Compound: ginkgolic acid
IC50 (5-LOX [1]): 200 nM
SPM formation ([4]; 10 μmol/L): 110%–240%
